The test system of test [1] is ABCA1-mediated cholesterol efflux. Kind of test: 3H-cholesterol efflux to apoA-I from free cholesterol-loaded macrophages. In kind it is cell-based, mouse. The procedure:
Peritoneal macrophages from C57 mice were incubated for 5 h with 100 μg/ml ^3H-cholesterol-labeled acetyl-LDL in DMEM, 0.2% BSA, in the presence of 10 μg/ml 58035.
(§1) Acetyl-LDL (800 μg) was incubated with 10 μCi ^3H-cholesterol for 30 min at 37° C., followed by addition of 8 ml of DMEM, 0.2% BSA. The macrophages were incubated with this medium for 5 h, washed 3 times with PBS, and then incubated with DMEM, 0.2% BSA for 15 min at 37° C. After washing with PBS, the macrophages were incubated with DMEM, 0.2% BSA, containing either 15 μg/ml apoAI or 20 μg/ml HDL2. At the indicated time points, 100 μl of media was removed and centrifuged for 5 min at 14,000 rpm to pellet cellular debris. The radioactivity in this fraction of media was quantitated by liquid scintillation counting. After the last time point, the remainder of the media was removed, and the cells were dissolved in 0.5 ml of 0.1 N NaOH containing 0.5% sodium dodecylsulfate (5 h at room temperature). A 100 μl-aliquot of the cell lysate was counted, and the percent efflux was calculated as (media cpm)[…](cell +media cpm)×100. Total protein in the cell lysate was determined using the Bio-Rad DC protein assay kit. Note that there was no statistical difference in cellular cpm or protein between cholesteryl ester- and free cholesterol-loaded macrophages.

Test [2] deals with ABCA1-independent efflux to HDL2. Kind of test: 3H-cholesterol efflux to HDL2 from free cholesterol-loaded macrophages. It counts as cell-based, mouse. The following applies: 70 nM, FC-loaded macrophages (FIG. 12B). The protocol:
as §1

In the next test the test system is ABCA1 protein. Kind of test: ABCA1 immunoblot of total and cell-surface protein in cholesterol-loaded macrophages. It counts as cell-based, mouse. The procedure: Macrophages were pre-incubated for 14 h with 50 μg/ml acetyl-LDL in DMEM, 0.2% BSA, in the absence (CE) or presence (FC) of 58035. The cells were then incubated for 5 h with 100 μg/ml acetyl-LDL in DMEM, 0.2% BSA, in the absence or presence of 58035, respectively, with no further additions (Control) or in the presence of 10 μg/ml cycloheximide, 50 μM ALLN, or 50 μM lactacystin as indicated. Aliquots of cell lysates were then assayed for ABCA1 and β-actin protein by immunoblot analysis.
Macrophages were pre-incubated for 14 h with 50 μg/ml acetyl-LDL in DMEM, 0.2% BSA, in the absence (CE) or presence (FC) of 58035. […] Aliquots of total cell protein (top panel) or cell-surface protein (bottom panel) were then subjected to immunoblot analysis for ABCA1 and the standards β-actin or β1-integrin.
Macrophage monolayers in 35-mm dishes were washed with ice-cold PBS 3 times and then incubated with ice-cold PBS containing 0.5 mg/ml NHS—SS-biotin (Pierce) for 30 minutes at 4° C. After washing 5 times with ice-cold PBS containing 20 mM Tris-HCl, pH 8.0, the cells were scraped into PBS and pelleted by centrifugation. The pelleted macrophages were lysed in 50 μl RIPA buffer (0.5% sodium deoxycholate, 0.1% SDS, 1% Triton X-100, 20 mM Tris, 150 mM NaCl, and 5 mM EDTA, pH 8) containing 1 mM PMSF. […] of the lysate were subjected directly to 4-20% gradient SDS-polyacrylamide gel electrophoresis (SDS-PAGE) for determination of total ABCA1. The rest of the cell lysate was affinity-purified to isolate biotinylated proteins. Briefly, the cell lysates were diluted to 150 μl in RIPA buffer and incubated with 50 μl immobilized streptavidin agarose (Pierce), which was pre-washed three times with RIPA buffer at 0° C. for 2 h with gentle shaking. The agarose was pelleted by centrifugation using a microcentrifuge at 5,000 rpm for 2 min; the pellet was resuspended in 1 ml RIPA buffer, and the process was repeated 5 times. The agarose was resuspended 30 μl SDS-PAGE loading buffer containing 330 mM β-mercaptoethanol at 37^6C for 15 min and subjected to SDS-PAGE as above. ABCA1 and β-integrin were detected by Western blot using anti-ABCA1 and anti-β-integrin anti-sera. The blots were reprobed with anti-β-actin antibody, which detected no actin signal, thus verifying that no cytosolic protein was biotinylated by the procedure.
Peritoneal macrophages were lysed in RIPA buffer containing 1 mM PMSF. Nuclei were removed by centrifugation at 3000×g for 10 min at 4° C. […] For Western blot detection of ABCA1, anti-ABCA1 antiserum was used. Signals were detected using HRP-conjugated secondary anti-bodies (Bio-Rad) and ECL (Amersham Pharmacia Biotech). The membranes were reprobed with anti-β actin monoclonal antibody or anti-β1-integrin anti-serum for the proper internal controls. The relative intensities of the bands were determined by densitometry.

The test system of test [3] is LDL receptor knockout mice. Kind of test: In vivo efficacy in LDL receptor knockout mouse model of atherosclerosis. To be noted: 0.75 mg/kg/d. The procedure:
Plasma was assayed for total cholesterol.
Asteriks denote statistically significant differences between drug and control groups (p<0.05 by the Student's t test).

The subject of test [4] is ABCA1-mediated cholesterol efflux. Kind of test: 3H-cholesterol efflux to apoA-I from free cholesterol-loaded macrophages. It counts as cell-based, mouse. The following applies: 70 nM; macrophages incubated for a prolonged period with acetyl-LDL without ACAT inhibitor (FIG. 12C).
The subject of test [5] is mouse peritoneal macrophages. To be noted: very low doses; reference 22; cited from earlier work.
Test [6] deals with unfolded protein response (UPR). To be noted: very low doses; reference 22; cited from earlier work.
For test [7], the system named is mouse peritoneal macrophages. Kind of test: Annexin V / propidium iodide cell death assay of macrophages.
Excerpt: Representative fluorescence images and quantitative cell death data from five fields of cells for each condition are shown, expressed as the percent of total cells that stained with annexin V or propidium iodide (mean±S.E.M.; n=5 fields of cells, where each field had ˜200 cells).
Representative fluorescence images and quantitative data are shown (mean±S.E.M.; n=5 fields of cells, where each field had ˜200 cells).
Representative fluorescence images are shown in FIG. 19A, and quantitative apoptosis data from five fields of cells for each condition are shown in FIG. 19B, expressed as the percent of total cells that stained with annexin V or propidium iodide (mean±S.E.M.; n=5 fields of cells, where each field had ˜200 cells).
Peritoneal macrophages from adult female C57BL/6 mice and all mutant mice used in this study were harvested three days after the intraperitoneal injection of 40/g of concanavalin A in 0.5 ml of PBS. The cells were incubated in Dulbecco's modified Eagle's medium (DMEM) supplemented with 10% fetal bovine serum (FBS) and 20% L-cell conditioned medium. The medium was replaced every 24 hours until the macrophages were confluent. On the day of the experiment, the cells were washed three times with warm PBS and incubated as indicated in the Description of Figures for FIGS. 15A-20E. Most importantly, FC-loading of wild type and mutant macrophages was effected by incubating the cells with 100 μg/ml acetyl-LDL in the presence of 10 μg/ml 58035, which inhibits ACAT-mediated cholesterol esterification (11). At the end of the incubation period, the macrophages were assayed for early-mid-stage apoptosis (i.e., phosphatidylserine externalization) by staining with Alexa-488-labeled annexin V and for late-stage apoptosis (i.e., increased membrane permeability) by staining with propidium iodide (PI), as previously described (11). Cells were immediately viewed with an Olympus IX-70 inverted fluorescence microscope, and 3-6 representative fields (˜1000 cells) for each condition were counted for the number of annexin-positive, PI-positive, and total cells.

Turning to `CCN(CC)CCO[C@H]1CC[C@@]2(C)C(=CC[C@@H]3[C@@H]2CC[C@]2(C)C(=O)CC[C@@H]32)C1` [U18666A, 3-β-[2-(diethylamino)ethoxy]androst-5-en-17-one], in test [1] (FC-loaded macrophages), the “concentrations at which efflux was gradually inhibited” value was “greater than 100 nM”. Also, the “induction of cholesterol efflux to ApoA-1” value in test [1] (FC-loaded macrophages (FIGS. 11A, 11B)) is reported as “marked ability to induce cholesterol efflux to ApoA-1”. For the same compound, the “concentration of peak cholesterol efflux to ApoA-1” value in test [1] (FC-loaded macrophages, 6 h apoA-I (FIG. 11A)) was determined as 70 nM. For the same compound, the “restoration of ABCA1-dependent efflux” value in test [1] (optimal low doses, FC-loaded macrophages (FIG. 12A)) is “restored ABCA1-dependent efflux”. Further, in test [2], the “ABCA1-independent efflux (to HDL2)” value is reported as “improved”. Moreover, the “ABCA1 protein loss in free cholesterol-loaded cells (total protein)” value with ABCA1 protein (70 nM (FIG. 13, top panel)) is listed as “protected from the ABCA1 protein loss”. In addition, the “decrease of cell-surface ABCA1 protein” value in the test with ABCA1 protein (70 nM, FC-loaded cells (FIG. 13, bottom panel), 60% in untreated cells) is on record as “about 15%”. The “ABCA1 protein expression in free cholesterol-loaded cells” value in the test with ABCA1 protein (low concentrations) is “markedly enhance”. The “plasma HDL cholesterol versus vehicle” value in test [3] (12 weeks (FIG. 14B)) is “similar”. Moreover, the “atherosclerotic lesion area, proximal aorta” value in test [3] (12 weeks (FIG. 14C), p<0.05) is “marked reduction”. Further, the “acellular area, proximal aorta” value in test [3] (12 weeks (FIG. 14D), p<0.05) is “marked reduction”. For the same compound, in test [3] (12 weeks (FIG. 14E), p<0.05), the “lipid core area, proximal aorta” value is listed as “marked reduction”. The “plasma total cholesterol versus vehicle” value in test [3] (12 weeks, cholesterol and saturated fat diet (FIG. 14A)) was “similar”. Also, in test [4], the “increase of cholesterol efflux to apoA-I” value is “about 30%”. The “block of apoptosis in FC-loaded cultured macrophages” value in test [5] is “almost completely”. In addition, the “block of UPR activation in FC-loaded cultured macrophages” value in test [6] is reported as “almost completely”. In addition, the staurosporine-induced macrophage apoptosis result in test [7] (data not shown) is reported as “failed to protect”. Further, the “FC-induced death of Perk−/− macrophages” value in test [7] (low dose (70 nM), 10 h (FIGS. 19A, 19B)) is on record as “markedly protected”. Besides, the FC-induced macrophage death result in test [7] (low dose (70 nM), acetyl-LDL + 58035, 8 h (FIG. 15C)) was “protected macrophages from the lethal effect of cholesterol loading”.

Source of the values: patent US20040259853A1, “Methods for preventing acute clinical vascular events in a subject” (The Trustees of Columbia University, priority 2000, published 2004).
